Entries after “also recorded” stand apart in the source; their conditions may differ. Where two headings read alike, the source gives them in different places.
Key:
[1] = biological target: rat polymerase β (Rattus norvegicus, UniProt P06766); type: biochemical
Experimental: To a 50 μL of 62.5 mM 2-amino-2-methyl-1,3-propanediol buffer, pH 8.6, containing 10 mM MgCl2, 1 mM DTT, 100 μg/mL BSA, 6.25 μM dNTPs including 0.04 Ci/mmol [^3H]dTTP, and 0.25 mg/mL activated calf thymus DNA was added 6 μL of a solution containing each test compound and 4 μL of recombinant rat liver DNA polymerase β preparation (6.9 units, 4.8×10^4 units/mg). After incubation at 37° C. for 60 min, the radiolabeled DNA product was collected on DEAE-cellulose paper (DE-81), dried, and rinsed successively with 0.4 M K2HPO4, pH 9.4, and 95% ethanol for radioactivity determination.

[2] = biological target: T1, yeast polymerase σ (Trf4, pol sigma-I) (Saccharomyces cerevisiae, UniProt P53632); assay: in vitro primer extension assay (5'-32P dT16 primer / poly dA template) for polymerase σ inhibition; type: biochemical, yeast (S. cerevisiae); conditions: for inhibition of polymerase σ in primer extension assay (FIG. 3), in words: 10 μM test compound, 5 min, dTTP, Mg2+; for concentration level of yeast pol sigma inhibition, in words: yeast pol sigma in vitro
T1 construct: His6 (peptide tag containing six histidines); made in house; host or cells: E. coli
T1 sequence (P53632 1-584): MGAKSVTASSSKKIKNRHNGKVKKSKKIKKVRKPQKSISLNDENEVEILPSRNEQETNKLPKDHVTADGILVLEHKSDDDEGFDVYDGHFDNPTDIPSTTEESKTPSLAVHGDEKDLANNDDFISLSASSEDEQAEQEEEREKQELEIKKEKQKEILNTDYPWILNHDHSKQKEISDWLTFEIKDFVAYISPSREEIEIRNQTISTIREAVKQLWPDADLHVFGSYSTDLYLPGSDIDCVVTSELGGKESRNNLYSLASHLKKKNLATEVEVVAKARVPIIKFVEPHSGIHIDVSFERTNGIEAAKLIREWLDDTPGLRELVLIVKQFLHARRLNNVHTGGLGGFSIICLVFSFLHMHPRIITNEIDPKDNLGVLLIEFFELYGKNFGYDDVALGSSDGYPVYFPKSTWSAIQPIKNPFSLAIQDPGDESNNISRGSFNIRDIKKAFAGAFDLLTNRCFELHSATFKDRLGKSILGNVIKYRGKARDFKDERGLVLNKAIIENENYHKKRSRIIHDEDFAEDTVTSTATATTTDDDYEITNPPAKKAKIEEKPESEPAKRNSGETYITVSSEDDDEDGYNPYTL
Experimental: Due to the predicted structural similarity between pol sigma and pol β (Aravind and Koonin, 1999, Nucleic Acids Research 27: 1609-1618) several known β polmerase inhibitors were tested to determine if they would inhibit pol sigma in vitro. […] The template primer was incubated in the presence of dTTP, Mg^2+ and 10 μM test compound for 5 min. […] Lane 1 of FIG. 3 is a control with only the DMSO solvent added to the poly dA/ oligo dT assay, the remaining lanes represent reactions run in the presence of one of the β polmerase inhibitors.
The assay system that has been employed to date employs a dT16 primer annealed to a poly dA template (average length 282 nucleotides). Primer elongation as a consequence of the addition of T residues (in a distributive fashion) has been monitored by polyacrylamide gel electrophoresis. For purposes of screening for inhibitors a variant of the DNA polymerase β this system will be used as follows: […]

[3] = P388D1 cell viability, camptothecin and ursolic acid alone or together (Trypan Blue, hemacytometer); conditions: mouse, % viability, 6 hr incubation, 1 μM camptothecin, 0.5 μM ursolic acid
Source text: (§1) Viable cells were scored by the use of a hemacytometer plate after straining with Trypan Blue.

[4] = test system: P388D1 cells; assay: as above; conditions: 6 hr incubation, 1 μM camptothecin, 0.5 μM ursolic acid
Source text: as §1

[5] = biological target: human pol sigma (pol sigma-1) (Homo sapiens, UniProt Q5XG87); assay: inhibition of human pol sigma; type: biochemical
Chain of human pol sigma (pol sigma-1) (Q5XG87 whole entry): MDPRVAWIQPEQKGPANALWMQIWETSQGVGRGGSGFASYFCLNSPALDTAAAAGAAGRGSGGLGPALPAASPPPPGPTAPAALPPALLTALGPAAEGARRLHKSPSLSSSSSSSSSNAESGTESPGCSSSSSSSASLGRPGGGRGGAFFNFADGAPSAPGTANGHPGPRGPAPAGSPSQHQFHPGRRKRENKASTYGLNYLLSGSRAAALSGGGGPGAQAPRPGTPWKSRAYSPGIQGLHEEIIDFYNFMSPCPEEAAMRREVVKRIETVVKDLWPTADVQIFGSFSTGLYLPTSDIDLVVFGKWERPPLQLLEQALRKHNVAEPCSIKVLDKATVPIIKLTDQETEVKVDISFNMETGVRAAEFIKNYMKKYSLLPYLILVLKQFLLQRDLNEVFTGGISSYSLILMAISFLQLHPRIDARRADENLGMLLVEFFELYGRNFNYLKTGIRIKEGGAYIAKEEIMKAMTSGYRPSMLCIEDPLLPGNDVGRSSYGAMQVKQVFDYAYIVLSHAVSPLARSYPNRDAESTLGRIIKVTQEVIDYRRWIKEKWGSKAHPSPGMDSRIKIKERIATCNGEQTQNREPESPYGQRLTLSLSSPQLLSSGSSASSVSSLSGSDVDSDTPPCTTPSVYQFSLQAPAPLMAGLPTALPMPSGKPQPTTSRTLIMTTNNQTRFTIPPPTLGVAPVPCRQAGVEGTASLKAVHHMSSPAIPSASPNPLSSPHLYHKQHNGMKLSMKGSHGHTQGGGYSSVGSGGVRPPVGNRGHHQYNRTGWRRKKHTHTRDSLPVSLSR

[6] = test system: TRF4-deficient yeast (trf4 single mutants); assay: yeast spot growth assay, sensitivity to camptothecin; type: cell-based, S. cerevisiae (yeast)
Experimental: Spots represent serial 10-fold dilutions of saturated yeast cultures spotted onto Petri plates and incubated at 30° C. for 2 days in the presence of 10 ug/ml of camptothcin (FIG. 1A) or absence of drug (FIG. 1B).

| Compound | rank order of potencies for rat polymerase β [1] | inhibition of polymerase σ in primer extension assay (FIG. 3), in words [2] | concentration level of yeast pol sigma inhibition, in words [2] | viability at 6 h ([3]; Experiment 1, P388D1 cells) [%] | viability at 6 h ([3]; Experiment 2, P388D1 cells) [%] | toxicity to P388D1 cells, in words [4] | inhibitory activity against human pol sigma, in words [5] | concentration level of yeast pol sigma inhibition, in words ([2]; listed as Ursolic acid) | rank order of potencies for rat polymerase β ([1]; rat polymerase β) | IC50 [2] [nM] | pol sigma polymerase activity observed in presence of compound ([2]; 10 uM concentration) | viability at 6 h ([3]; P388D1 cells (suspension culture), Experiment 1, P388D1 cells) [%] | viability at 6 h ([3]; P388D1 cells (suspension culture), Experiment 2, P388D1 cells) [%] | sensitivity of pol sigma-deficient yeast relative to wild-type strains, in words ([6]; 10 ug/ml, 30° C., 2 days, trf4::HIS3 and mcd1-1) | sensitivity of yeast cells lacking TRF4 to the agent relative to wild type ([6]; yeast cells lacking TRF4 (FIG. 1)) |
| --- | --- | --- | --- | --- | --- | --- | --- | --- | --- | --- | --- | --- | --- | --- | --- |
| C=C(C)[C@@H]1CC[C@]2(C(=O)O)CC[C@]3(C)[C@H](CC[C@@H]4[C@@]5(C)CC[C@H](O)C(C)(C)[C@@H]5CC[C@]43C)[C@@H]12 [betulinic acid] | ursolic acid >betulinic acid >> 3β-hydroxy-7,24-euphandien-26-oic acid | showing activity | micromolar concentrations | – | – | – | – | – | – | – | – | – | – | – | – |
| C[C@H]1[C@H](C)CC[C@]2(C(=O)O)CC[C@]3(C)C(=CC[C@@H]4[C@@]5(C)CC[C@H](O)C(C)(C)[C@@H]5CC[C@]43C)[C@H]12 [ursolic acid] | ursolic acid >betulinic acid >> 3β-hydroxy-7,24-euphandien-26-oic acid | showing activity | micromolar concentrations | 88 | 77 | minimal toxicity | inhibitory activity | inhibits yeast polymerase σ | – | – | – | – | – | – | – |
| C/C(=C\CC[C@@H](C)[C@@H]1CC[C@]2(C)C3=CC[C@H]4C(C)(C)[C@@H](O)CC[C@]4(C)[C@H]3CC[C@@]12C)C(=O)O [(24E)-3beta-hydroxy-7,24-euphandien-26-oic acid] | – | most potent of the species tested | nanomolar level inhibitor | – | – | – | inhibitory activity; also recorded: active, albeit only at micromolar concentrations; also recorded: also work to inhibit human pol sigma-1 | – | ursolic acid >betulinic acid >> 3β-hydroxy-7,24-euphandien-26-oic acid | ~500 | no activity whatsoever | – | – | – | – |
| CC[C@@]1(O)C(=O)OCc2c1cc1n(c2=O)Cc2cc3ccccc3nc2-1 [camptothecin] | – | – | – | – | – | minimal toxicity | – | – | – | – | – | 84 | 77 | hypersensitive | 10,000 fold |

Reference: patent US20040029906A1, “Inhibitors of dna polymerase sigma” (priority 2003, published 2004)
